The source made the active and inactive calls. The calls are words filed in the database; no cut-off is given here.
How the values were obtained:
[1] = Acute toxicity in C57BL/[…] 6J mouse assessed as pathological change in spleen at 20 mg/kg, ip measured for 2 weeks by H and E staining based analysis; format: organism-based; conditions: in vivo, 336 h
[2] = tested on: SW-620; assay: Induction of cell cycle arrest at G2/M phase in human SW620 cells at 0.5 to 2 uM incubated for 48 hrs by PI staining based flow cytometry relative to control; format: functional; conditions: dose 0.5-2 µM
[3] = tested on: SW-620; assay: Induction of apoptosis in human SW620 cells assessed as total apoptotic cells at 1 uM incubated for 48 hrs by Annexin V-FITC/PI staining based flow cytometry relative to control; format: functional
[4] = tested on: SW-620; assay: cells; conditions: Homo sapiens, SW-620, 48 h, read-out: Activity
Description: Induction of apoptosis in human SW620 cells assessed as viable cells at 1 uM incubated for 48 hrs by Annexin V-FITC/PI staining based flow cytometry (Rvb = 90.7 %)

[5] = Antiproliferative activity against HEK293T cells; format: toxicity, cell-based, HEK-293T; conditions: human
[6] = tested on: SW-620; assay: Induction of mitochondrial membrane potential depolarization in human SW620 cells assessed as decrease in JC-1-stained red cells incubated for 48 hrs by flow cytometry; format: functional, cell-based; conditions: dose 0.5-2 µM
[7] = tested on: SW-620; assay: Antitumor activity against human SW620 cells xenografted in BALB/c nude mouse assessed as decrease in tumor weight at 2 mg/kg, ip qd for 16 days; format: functional, organism-based; conditions: time 16.0 day
[8] = Acute toxicity in C57BL/[…] 6J mouse assessed as pathological change in kidney at 20 mg/kg, ip measured for 2 weeks by H and E staining based analysis; format: organism-based; conditions: in vivo, 336 h
[9] = tested on: SW-620; assay: Anti-proliferative activity against human SW620 cells xenografted in BALB/c nude mouse at 2 mg/kg, ip qd for 16 days by TUNEL analysis; format: functional, organism-based; conditions: time 16.0 day
[10] = Selectivity ratio of IC50 for human LX2 cells to IC50 for human SW620 cells; format: functional
[11] = Selectivity ratio of IC50 for HEK293T cells to IC50 for human HCT-116 cells; format: functional
[12] = tested on: SW-620; assay: Induction of mitochondrial membrane potential depolarization in human SW620 cells assessed as decrease in fluorescence intensity ratio of JC1-stained aggregates to monomers incubated for 48 hrs by CLSM analysis; format: functional, cell-based; conditions: dose 0.5-2 µM
[13] = tested on: SW-620; assay: Induction of DNA damage in human SW620 cells assessed as increase in gamma-H2AX level incubated for 48 hrs by Western blot analysis; format: functional, cell-based; conditions: dose 0.25-2 µM
[14] = Half life in mouse at 2 mg/kg, iv measured for 24 hrs by LC-MS/MS analysis; format: ADME, organism-based; conditions: in vivo
[15] = Acute toxicity in C57BL/[…] 6J mouse assessed as pathological change in liver at 20 mg/kg, ip measured for 2 weeks by H and E staining based analysis; format: organism-based; conditions: in vivo, 336 h
[16] = Volume of distribution in mouse at 2 mg/kg, iv measured for 24 hrs by LC-MS/MS analysis; format: ADME, organism-based; conditions: in vivo
[17] = Antiproliferative activity against human LX2 cells; format: toxicity, cell-based, LX-2
[18] = Selectivity ratio of IC50 for mouse […] cells to IC50 for human HCT-116 cells; format: functional
[19] = tested on: SW-620; assay: Induction of cell cycle arrest at S phase in human SW620 cells at 1 uM incubated for 24 hrs by PI staining based flow cytometry (reference value: 59.9 %); format: functional
[20] = tested on: SW-620; assay: Antitumor activity against human SW620 cells xenografted in BALB/c nude mouse assessed as nuclear pyknosis in tumor cells at 2 mg/kg, ip qd for 16 days by H and E staining based analysis; format: functional, organism-based; conditions: time 16.0 day
[21] = tested on: SW-620; assay: Induction of mitochondrial membrane potential depolarization in human SW620 cells assessed as JC-1-stained green cells upto 2 uM incubated for 48 hrs by flow cytometry (reference value: 8.9 %); format: functional; conditions: up to 2 µM
[22] = molecular target: T1, Peroxiredoxin-1 (Homo sapiens) (UniProt Q06830)
T1 sequence (whole entry): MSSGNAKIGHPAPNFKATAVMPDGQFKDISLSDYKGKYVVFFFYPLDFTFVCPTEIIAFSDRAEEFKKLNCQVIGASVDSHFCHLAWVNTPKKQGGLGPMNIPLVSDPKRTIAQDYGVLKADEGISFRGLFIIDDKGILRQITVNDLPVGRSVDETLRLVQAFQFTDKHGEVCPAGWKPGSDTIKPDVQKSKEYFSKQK
Description: Binding affinity to recombinant PRDX1 (unknown origin)assessed as change in melting temperature by protein thermal shift assay

[23] = tested on: SW-620; assay: Induction of cell cycle arrest at G1 phase in human SW620 cells at 0.5 uM incubated for 24 hrs by PI staining based flow cytometry (reference value: 32.4 %); format: functional
[24] = Selectivity ratio of IC50 for mouse […] cells to IC50 for human SW620 cells; format: functional
[25] = Cmax in mouse at 2 mg/kg, iv measured for 24 hrs by LC-MS/MS analysis; format: ADME, organism-based; conditions: in vivo
[26] = tested on: SW-620; assay: Induction of cell cycle arrest at G2 phase in human SW620 cells at 2 uM incubated for 24 hrs by PI staining based flow cytometry (reference value: 6.77 %); format: functional
[27] = tested on: SW-620; assay: Inhibition of cell viability in human SW620 cells incubated for 72 hrs by Cell Titer Glo assay; format: functional, cell-based; conditions: SW-620, 72 h
[28] = tested on: HCT-116; assay: Inhibition of cell viability in human HCT-116 cells incubated for 72 hrs by Cell Titer Glo assay; format: functional, cell-based; conditions: HCT-116, 72 h
[29] = tested on: SW-620; assay: Induction of cell cycle arrest at G1 phase in human SW620 cells at 1 uM incubated for 24 hrs by PI staining based flow cytometry (reference value: 32.4 %); format: functional
[30] = Clearance in mouse at 2 mg/kg, iv measured for 24 hrs by LC-MS/MS analysis; format: ADME, organism-based; conditions: in vivo
[31] = Acute toxicity in C57BL/[…] 6J mouse assessed as body weight loss at 20 mg/kg, ip measured for 2 weeks; format: organism-based; conditions: in vivo, 336 h
[32] = tested on: SW-620; assay: Antitumor activity against human SW620 cells xenografted in BALB/c nude mouse assessed as morphological change in vacuoles in tumor cells at 2 mg/kg, ip qd for 16 days by H and E staining based analysis; format: functional, organism-based; conditions: time 16.0 day
[33] = tested on: SW-620; assay: Induction of cell cycle arrest at S phase in human SW620 cells at 2 uM incubated for 24 hrs by PI staining based flow cytometry (reference value: 59.9 %); format: functional
[34] = Antiproliferative activity against mouse […] cells; format: toxicity, cell-based
[35] = Acute toxicity in C57BL/[…] 6J mouse assessed as animal death at 20 mg/kg, ip measured for 2 weeks; format: organism-based; conditions: in vivo, 336 h
[36] = tested on: SW-620; assay: Induction of apoptosis in human SW620 cells assessed as decrease in Bcl-xl level incubated for 48 hrs by Western blot analysis; format: functional, cell-based; conditions: dose 0.25-2 µM
[37] = tested on: SW-620; assay: cells; conditions: Homo sapiens, SW-620, 48 h, read-out: Activity; remark: listed apart in the source
Description: Induction of apoptosis in human SW620 cells assessed as viable cells at 2 uM incubated for 48 hrs by Annexin V-FITC/PI staining based flow cytometry (Rvb = 90.7 %)

[38] = tested on: SW-620; assay: Induction of apoptosis in human SW620 cells assessed as total apoptotic cells at 2 uM incubated for 48 hrs by Annexin V-FITC/PI staining based flow cytometry relative to control; format: functional
[39] = tested on: SW-620; assay: Induction of apoptosis in human SW620 cells assessed as increase in Cyt C level incubated for 48 hrs by Western blot analysis; format: functional, cell-based; conditions: dose 0.25-2 µM

With COC(=O)C1(NC(=O)N[C@]2(C)CC[C@]3(C)CC[C@]4(C)C5=CC=C6C(=CC(=O)C(O)=C6C)[C@]5(C)CC[C@@]4(C)[C@@H]3C2)CCC1 the Activity [1] was “Non-Toxic”, the Activity [2] was 7.1% and the Activity [3] was 19%. The viability at 1 µM [4] was 78.8%, the IC50 [5] was roughly 1 µM and the Activity [6] was “Dose-Dependent Effect”. For the same compound, the Activity [7] was “Active”, the Activity [8] was “Non-Toxic” and the Activity [9] was “Active”. The Selectivity ratio [10] was 2, the Selectivity ratio [11] was 2 and the Activity [12] was “Dose-Dependent Effect”. For the same compound, the Activity [13] was “Dose-Dependent Effect”, the half-life [14] was 8.46 h and the Activity [15] was “Non-Toxic”. The Vd [16] was 60.7 L/kg, the IC50 [17] was roughly 1 µM and the Selectivity ratio [18] was 2. For the same compound, the Activity [19] was 42.7%, the Activity [20] was “Active” and the Activity [21] was 54.6%. It also gave a ΔTm [22] of -7.5 °C, an Activity [23] of 33.5% and a Selectivity ratio [24] of 2. It also gave a Cmax [25] of 203 ng/mL, an Activity [26] of 17.4% and an IC50 [27] of 0.32 µM. For the same compound, the IC50 [28] was 0.44 µM, the Activity [29] was 39.7% and the clearance [30] was 83.1 mL/min/kg. The Activity [31] was “Non-Toxic”, the Activity [32] was “Active” and the Activity [33] was 50.1%. The IC50 [34] was roughly 1 µM, the Activity [35] was “Non-Toxic” and the Activity [36] was “Dose-Dependent Effect”. For the same compound, the viability at 2 µM [37] was 41.5%, the Activity [38] was 54.7% and the Activity [39] was “Dose-Dependent Effect”.

Source: ChEMBL document CHEMBL5543168, “Discovery of Urea Derivatives of Celastrol as Selective Peroxiredoxin 1 Inhibitors against Colorectal Cancer Cells” (J Med Chem, 2024)
